Laboratory results from patent US12173018B2, “Penicillin-binding protein inhibitors” (priority 2018, dated 2024).
≈ marks a conversion by molar mass, not a printed value. Where two headings read alike, the source gives them in different places.

Legend:
P. aeruginosa ATCC 35151 = test: microbe, parasite or virus in culture; type: cell-based; details: Pseudomonas aeruginosa, ATCC35151; hyper-permeable P. aeruginosa ATCC 35151; read-out: MIC P. aeruginosa ATCC 35151
Summary of the method: (§1)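 Visual MIC readout after 16-20 h at 37° C in CLSI-format microdilution. Compounds tested as 2-fold series against a 5×10^5 CFU/mL inoculum in cation-supplemented Mueller-Hinton broth.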

[1] = tested on: P. aeruginosa (ΔmexAB-oprM); test: microbe, parasite or virus in culture; type: cell-based; details: Pseudomonas aeruginosa, read-out: MIC P. aeruginosa ΔmexAB-OprM
Summary of the method: as §1

[2] = tested on: engineered strain of Escherichia coli harboring CTX-M15; test: microbe, parasite or virus in culture; type: cell-based; details: Escherichia coli, read-out: Microbiological Activity (MIC in mg/L), E. coli DH5α/pLBII-CTX-M15, engineered strain producing CTX-M15
P. aeruginosa PAO1 = test: Broth microdilution MIC, P. aeruginosa PAO1; type: cell-based; details: Pseudomonas aeruginosa, PAO1, read-out: MIC P. aeruginosa PAO1
Procedure: To determine the ability of test compounds to potentiate the inhibition of the growth of bacterial strains, classic cell based broth microdilution minimum inhibitory concentration (MIC) assays were employed. MIC assays are performed according to CLSI methods except where otherwise noted (CLSI, 2011 and CLSI, 2009). The reference type strain E. coli ATCC 25922, the wild-type parent strain E. coli AG100, the hyper-permeable E. coli 901C and E. coli D22 and the E. coli AG100A strain lacking the acrAB efflux pump encoding genes were used to determine the ability of the PBP inhibitors to penetrate the outer membrane of gram-negative bacteria and inhibit bacterial growth. […] The P. aeruginosa PAO1, P. aeruginosa ATCC 27853 and A. baumannii ATCC 19606, along with the hyper-permeable P. aeruginosa ATCC 35151 and an engineered efflux pump-compromised strain of P. aeruginosa (ΔmexAB-oprM) were used to determine the ability of PBP inhibitors to penetrate the outer membrane of P. aeruginosa and A. baumannii and assess antibacterial activity against these important gram-negative organisms.
Briefly, cryo-preserved bacterial cultures of challenge strains are streaked for isolation on appropriate agar medium, in this case Mueller Hinton II agar. Following incubation to allow growth of the colonies, plates are sealed with parafilm and stored refrigerated for up to two weeks. For preparation of assay inoculum and to ensure low variability, at least 5 colonies are picked from the agar plates with an inoculating loop and aseptically transferred to a culture tube containing 3 mL of Mueller-Hinton Broth (supplemented with divalent cations to required levels based on Manufacturers' certification). The broth culture is grown for 3-5 hours at 37° C. with shaking at 200 rpm. Meanwhile, 2-fold serial dilutions of test compounds are conducted in a 96 well plate with a final volume of 75 μL per well at 2-fold the final desired concentration. After the dilution plates are set up the growing cultures are then diluted in a cuvette containing MH II broth and the optical density is measured at 600 nm. The Inoculum is diluted such that 75 μL of this culture in Mueller-Hinton Broth results in a starting bacterial concentration of 5×10^5 CFU/mL when added to the dilution plates. The plates are incubated for 16-20 hours at 37° C. The MIC values are read visually as the lowest concentration well with no bacterial growth.

E. coli PBP1b = E. coli PBP1b (Escherichia coli (strain K12), UniProt P02919); test: Radioligand competition binding assay with 14C-labeled boronic acid probe, PBP1b
Source text: To determine the ability of boronic acid-based test PBP inhibitors to bind Penicillin Binding Proteins (PBPs), a radio-labelled boronic acid PBP inhibitor
[drawing 751] was used in competition binding assays to determine boronic acid PBP inhibitor binding to PBP1a or PBP1b from Escherichia coli. PBP1a and PBP1b were purified as described previously (Bertsche, U.; et al., J. Biol. Chem. 2005, 280 (45), 38096-38101; Born, P.; et al., J. Biol. Chem. 2006. 281 (37), 26985-26993). To establish assay conditions for competition binding, an enzyme titration/saturation binding experiment was performed. Saturation binding was performed in a buffer comprised of 20 mM Tris (pH 7.5), 500 mM NaCl and 0.1% (v/v) TritonX-100, with PBP1a/PBP1b at a final concentration of 0.1 μM and Compound A at final concentrations ranging from 0-100 μM. Mixtures were incubated for 60 minutes, then applied to Zeba Spin Desalting columns or plates (ThermoFisher Scientific) and centrifuged at 1000-1500×g for 2 minutes. The flow through, containing PBP bound with Compound A, was recovered and 100 μL mixed with 5 mL of UltimaGold liquid scintillation cocktail (Perkin Elmer), and the radioactivity counted using a Beckman Coulter LS 6500 Multipurpose scintillation counter. PBP binding of Compound A approached saturation at 20 μM of ^14C-labeled probe. The competition binding assay was validated using the beta-lactam ampicillin, with Compound A at a final concentration of 20 μM, PBP1a/PBP1b at a final concentration of 0.1 μM. PBP1a/PBP1b was incubated with ampicillin in a 96-well microplate for 60 minutes, then Compound A was added and the mixtures incubated for an additional 60 minutes. The mixtures were then applied to Zeba Spin desalting plates and centrifuged at 1000×g for 2 minutes. The flow through was recovered and 100 μl mixed with 5 ml of UltimaGold liquid scintillation cocktail and the radioactivity counted. […] Binding assays with boronic acid PBP inhibitors were performed in an identical fashion. The potency of boronic acid PBP inhibitors was reported as the EC50 value.

E. coli PBP3 = E. coli PBP3 (Escherichia coli (strain K12), UniProt P0AD68); test: E. coli PBP3 Bocillin-FL fluorescence polarization competition binding assay
Summary of the method: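 Steps: purified PBP (1.5 μM final) mixed with compound (0–1000 μM) in 50 mM Hepes pH 8.0, 300 mM NaCl, 5% glycerol; Bocillin-FL added to 0.1 μM; FP (ex 490, em 520 nm) followed for 60 min. Concentration reducing Bocillin-FL binding reported as EC50.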

E. coli D22 = test: microbe, parasite or virus in culture; type: cell-based; details: Escherichia coli; hyper-permeable E. coli D22, broth microdilution; read-out: MIC E. coli D22
Summary of the method: as §1

K. pneumoniae UMM = test: microbe, parasite or virus in culture; type: cell-based; details: Klebsiella pneumoniae; K. pneumoniae UMM producing SHV-5 and KPC-2; read-out: MIC K. pneumoniae UMM
Summary of the method: as §1

K. pneumoniae SI-117 = test: microbe, parasite or virus in culture; type: cell-based; details: Klebsiella pneumoniae, SI117, read-out: MIC K. pneumoniae SI-117
Summary of the method: as §1

E. coli AG100A = test: microbe, parasite or virus in culture; type: cell-based; details: Escherichia coli, read-out: MIC E. coli AG100A
Summary of the method: as §1

E. coli 901C = test: microbe, parasite or virus in culture; type: cell-based; details: Escherichia coli; hyper-permeable E. coli 901C, broth microdilution; read-out: MIC E. coli 901C
Summary of the method: as §1

K. pneumoniae 848844 = test: microbe, parasite or virus in culture; type: cell-based, Klebsiella pneumoniae; details: Klebsiella pneumoniae; K. pneumoniae 848844 producing SHV-11 and KPC-2; read-out: MIC K. pneumoniae 848844
Summary of the method: as §1

E. coli AG100 = test: Broth microdilution MIC, E. coli AG100 (wild-type parent); type: cell-based; details: Escherichia coli; wild-type parent E. coli AG100, broth microdilution; read-out: MIC E. coli AG100
Summary of the method: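 Starting inoculum of 5×10^5 CFU/mL, from colonies grown 3-5 h in Mueller-Hinton broth with divalent cations, added to two-fold compound dilution series.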

E. coli ATCC 25922 = test: Broth microdilution MIC, E. coli ATCC 25922; type: cell-based; details: Escherichia coli, ATCC25922; E. coli ATCC 25922, broth microdilution; read-out: MIC E. coli 25922
Summary of the method: as §1

[3] = fluorescence polarization competition binding with Bocillin-FL, read-out: E. coli K12 PBP3 Potency

Chain of E. coli PBP1b (P02919 whole entry): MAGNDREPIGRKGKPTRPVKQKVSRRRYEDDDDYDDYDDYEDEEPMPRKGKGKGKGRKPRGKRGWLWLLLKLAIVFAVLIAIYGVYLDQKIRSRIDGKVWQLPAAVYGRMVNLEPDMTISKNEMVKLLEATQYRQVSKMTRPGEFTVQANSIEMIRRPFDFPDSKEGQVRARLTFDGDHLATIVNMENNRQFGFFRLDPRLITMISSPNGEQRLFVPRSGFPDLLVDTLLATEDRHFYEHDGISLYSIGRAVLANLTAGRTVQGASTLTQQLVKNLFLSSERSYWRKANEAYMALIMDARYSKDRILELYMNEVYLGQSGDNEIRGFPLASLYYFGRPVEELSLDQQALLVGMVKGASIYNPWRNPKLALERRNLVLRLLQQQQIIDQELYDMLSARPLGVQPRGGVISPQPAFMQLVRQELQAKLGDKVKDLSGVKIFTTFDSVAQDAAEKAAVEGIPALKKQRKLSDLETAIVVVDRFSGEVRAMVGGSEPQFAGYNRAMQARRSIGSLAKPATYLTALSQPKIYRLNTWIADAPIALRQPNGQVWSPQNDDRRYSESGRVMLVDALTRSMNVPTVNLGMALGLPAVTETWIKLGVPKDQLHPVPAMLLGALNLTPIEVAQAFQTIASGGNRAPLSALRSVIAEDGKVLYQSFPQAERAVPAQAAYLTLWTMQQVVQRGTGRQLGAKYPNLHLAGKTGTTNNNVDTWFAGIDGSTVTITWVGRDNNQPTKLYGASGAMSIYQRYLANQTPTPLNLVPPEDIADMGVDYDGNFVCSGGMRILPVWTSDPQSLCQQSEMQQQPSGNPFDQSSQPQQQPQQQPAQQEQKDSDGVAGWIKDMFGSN
Chain of E. coli PBP3 (P0AD68 whole entry): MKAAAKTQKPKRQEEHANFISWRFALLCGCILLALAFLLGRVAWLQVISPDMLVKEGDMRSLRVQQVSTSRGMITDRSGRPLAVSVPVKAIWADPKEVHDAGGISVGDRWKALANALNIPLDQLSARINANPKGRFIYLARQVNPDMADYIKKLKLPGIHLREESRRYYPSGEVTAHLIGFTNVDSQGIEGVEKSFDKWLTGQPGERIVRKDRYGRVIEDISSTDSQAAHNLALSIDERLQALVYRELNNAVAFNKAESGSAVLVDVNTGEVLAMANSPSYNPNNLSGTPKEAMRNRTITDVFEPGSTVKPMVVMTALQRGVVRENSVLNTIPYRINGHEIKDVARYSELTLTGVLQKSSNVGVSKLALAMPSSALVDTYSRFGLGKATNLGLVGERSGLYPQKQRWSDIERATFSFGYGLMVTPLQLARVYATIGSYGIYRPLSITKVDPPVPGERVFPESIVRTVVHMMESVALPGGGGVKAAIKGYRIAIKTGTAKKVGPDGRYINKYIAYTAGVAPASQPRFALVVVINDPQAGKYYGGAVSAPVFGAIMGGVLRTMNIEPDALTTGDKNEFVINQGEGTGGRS

Compound	MIC (P. aeruginosa ATCC 35151) [µg/mL]	MIC [1] [µg/mL]	MIC [2] [mg/L]	MIC (P. aeruginosa PAO1) [µg/mL]	EC50 (E. coli PBP1b) [µM]	EC50 (E. coli PBP3) [µM]	MIC (E. coli D22) [µg/mL]	MIC (K. pneumoniae UMM) [µg/mL]	MIC (K. pneumoniae SI-117) [µg/mL]	MIC (E. coli AG100A) [µg/mL]	MIC (E. coli 901C) [µg/mL]	MIC (K. pneumoniae 848844) [µg/mL]	MIC (E. coli AG100) [µg/mL]	MIC (E. coli ATCC 25922) [µg/mL]	EC50 (E. coli PBP3; [3]) [µM]
CCN1CCN(C(=O)NC(C(=O)N[C@H]2Cc3cccc(C(=O)O)c3OB2O)c2ccc(OC)nc2Cl)C(=O)C1=O (stereo partly drawn) [Example 65, (3R)-3-(2-(2-chloro-6-methoxypyridin-3-yl)-2-(4-ethyl-2,3-dioxopiperazine-1-carboxamido)acetamido)-2-hydroxy-3,4-dihydro-2H-benzo[e][1,2]oxaborinine-8-carboxylic acid]	8 to 16	32 to 64	128 to 256 (≈ 223 to 446 µM)	> 128											
CCN1CCN(C(=O)N[C@H](C(=O)N[C@H]2Cc3cccc(C(=O)O)c3OB2O)C2CCN(C(=N)N)CC2)C(=O)C1=O [Example 92, (R)-3-((S)-2-(1-carbamimidoylpiperidin-4-yl)-2-(4-ethyl-2,3-dioxopiperazine-1-carboxamido)acetamido)-2-hydroxy-3,4-dihydro-2H-benzo[e][1,2]oxaborinine-8-carboxylic acid]			128 to 256 (≈ 230 to 459 µM)		< 10	> 500									
CCN1CCN(C(=O)NC(C(=O)N[C@H]2Cc3cccc(C(=O)O)c3OB2O)c2cccnc2)C(=O)C1=O (stereo partly drawn) [Example 105, (3R)-3-(2-(4-ethyl-2,3-dioxopiperazine-1-carboxamido)-2-(pyridin-3-yl)acetamido)-2-hydroxy-3,4-dihydro-2H-benzo[e][1,2]oxaborinine-8-carboxylic acid]			32 to 64 (≈ 62.8 to 126 µM)		> 100	30 to 500	8 to 16	32 to 64	> 128	2 to 4	< 0.25	> 128	32 to 64	32 to 64	
CCN1CCN(C(=O)NC(C(=O)N[C@H]2Cc3cccc(C(=O)[O-])c3OB2O)c2ccc[n+](C)c2)C(=O)C1=O (stereo partly drawn) [Example 106, (3R)-3-(2-(4-ethyl-2,3-dioxopiperazine-1-carboxamido)-2-(1-methylpyridin-1-ium-3-yl)acetamido)-2-hydroxy-3,4-dihydro-2H-benzo[e][1,2]oxaborinine-8-carboxylate]			32 to 64 (≈ 61.1 to 122 µM)		< 10										> 500
CCN1CCN(C(=O)NC(C(=O)N[C@H]2Cc3cccc(C(=O)O)c3OB2O)c2ccc[n+](CC(=O)[O-])c2)C(=O)C1=O (stereo partly drawn) [Example 108, 2-(3-(2-(((R)-8-carboxy-2-hydroxy-3,4-dihydro-2H-benzo[e][1,2]oxaborinin-3-yl)amino)-1-(4-ethyl-2,3-dioxopiperazine-1-carboxamido)-2-oxoethyl)pyridin-1-ium-1-yl)acetate]			32 to 64 (≈ 56.4 to 113 µM)		10 to 100	30 to 500	8 to 16	32 to 64	> 128	32 to 64	8 to 16	> 128	> 128	32 to 64	
CCN1CCN(C(=O)NC(C(=O)N[C@H]2Cc3cccc(C(=O)O)c3OB2O)c2ncccn2)C(=O)C1=O (stereo partly drawn) [Example 111, (3R)-3-(2-(4-ethyl-2,3-dioxopiperazine-1-carboxamido)-2-(pyrimidin-2-yl)acetamido)-2-hydroxy-3,4-dihydro-2H-benzo[e][1,2]oxaborinine-8-carboxylic acid]			32 to 64 (≈ 62.7 to 125 µM)		> 100	30 to 500	8 to 16	32 to 64	> 128	2 to 4	0.5 to 1	> 128	32 to 64	32 to 64	
CCN1CCN(C(=O)NC(C(=O)N[C@H]2Cc3cccc(C(=O)O)c3OB2O)C2CCCC2)C(=O)C1=O (stereo partly drawn) [Example 116, (3R)-3-(2-cyclopentyl-2-(4-ethyl-2,3-dioxopiperazine-1-carboxamido)acetamido)-2-hydroxy-3,4-dihydro-2H-benzo[e][1,2]oxaborinine-8-carboxylic acid]			128 to 256 (≈ 256 to 512 µM)		10 to 100										< 30
CCN1CCN(C(=O)NC(C(=O)N[C@H]2Cc3cccc(C(=O)O)c3OB2O)c2ccc(S(C)(=O)=O)cc2)C(=O)C1=O (stereo partly drawn) [Example 118, (3R)-3-(2-(4-ethyl-2,3-dioxopiperazine-1-carboxamido)-2-(4-(methylsulfonyl)phenyl)acetamido)-2-hydroxy-3,4-dihydro-2H-benzo[e][1,2]oxaborinine-8-carboxylic acid]			128 to 256 (≈ 218 to 437 µM)		> 100										< 30
CS(=O)(=O)c1ccc(C(NC(=O)N2CCN(CCF)C(=O)C2=O)C(=O)N[C@H]2Cc3cccc(C(=O)O)c3OB2O)cc1 (stereo partly drawn) [Example 119, (3R)-3-(2-(4-(2-fluoroethyl)-2,3-dioxopiperazine-1-carboxamido)-2-(4-(methylsulfonyl)phenyl)acetamido)-2-hydroxy-3,4-dihydro-2H-benzo[e][1,2]oxaborinine-8-carboxylic acid]			32 to 64 (≈ 52.9 to 106 µM)		> 100	30 to 500									
